Reference: PMC9328741 (Microbial Biotechnology, 2022)
Where two headings read alike, the source gives them in different places.

Tests used:
MycspAAO [1] = conditions: 0.1-80 mM HMF, 10 µg/ml enzyme, 100 mM sodium phosphate pH 8, 30 °C
MycspAAO [2] = assay: initial rates from HMF concentration over time, Lineweaver-Burk; type: biochemical, Mycobacterium sp. MS1601; conditions: 0.1-80 mM HMF, 10 µg/ml enzyme, 100 mM sodium phosphate pH 8, 30 °C

SMILES: O=Cc1ccc(CO)o1 [5-hydroxymethylfurfural]
- Km (MycspAAO [1]): 1900 ± 5 µM
- Km (MycspAAO [2]): 3300 ± 300 µM
